Patent US20150094376A1, “Hexamethonium Reverses the Lethal Cardiopulmonary Damages in a Rat Model of Brain Stem Lesions Mimicking Fatal Enterovirus 71 Encephalitis” (Kaohsiung Veterans General Hospital, priority 2013, published 2015)

Legend:
Format in all cases: in vivo, Sprague Dawley rats
[1] = test system: rats with bilateral 6-OHDA lesions of the NTS; assay: Epinephrine and norepinephrine levels by enzyme immunoassay in rats with 6-OHDA lesions
Experimental: (§1) The third set of experiments (intervention-treatment and control-treatment groups) was to infuse the ganglionic blocker (hexamethonium (Sigma), 25 mg/kg, iv) via the femoral vein at the time point of 10 minutes after NTS lesion to record BP and HR in trend (n=6 in each group) and the rats respectively were sacrificed at the time point (0, 3, 6 and 12 hours) for analyzing the parameters as discussed in the second set of experiments.
All blood samples were collected into micro-tubes and placed immediately into to an ice bath. The samples, then, were centrifuged at 10000 rpm for 20 minutes at 4° C. Aliquots of plasma were removed and stored at −80° C. until assayed for content of epinephrine and norepinephrine within four weeks utilizing enzyme immunoassay for the high-sensitive quantitative determination by Labor Diagnostika Nord-Medicrop Inc.

[2] = test system: rats with bilateral 6-OHDA lesions of the NTS; assay: Heart histopathology and immunohistochemistry (H&E, troponin T, BNP, connexin 43) in rats with 6-OHDA lesions
Experimental: as §1
(§2) For hematoxylin and eosin staining, the rat brain, heart, and lungs were excised immediately after blood sampling. They were rinsed with saline, free from blood or fatty tissue, lightly blotted with filter paper, and then were placed in 10% formalin for five days and blocked, embedded in paraffin, cut in 4 μm sections, and stained with hematoxylin and eosin.
(§3) Immunohistochemical analysis (troponin T and brain natriuretic peptide in heart tissue, neutrophil cell in lung tissue, and connexin 43 assays in the lung and heart tissues) was performed on the sections after the paraffin was melted in an oven at 70° C. for one hour. The sections were deparaffinized, microwaved in citric buffer (10 mmol/L, pH 6.0), blocked in 3% goat serum, and incubated with anti-cardiac troponin T antibody (1:200; Abeam), anti-myosin VIIa antibody (1:200; Abeam), anti-brain natriuretic peptide polyclonal antibody (1:1000; Thermo Fisher Scientific Inc.), anti-neutrophil elastase antibody (1:400; Abeam), and anti-connexin 43/GJA1 antibody (1:200; Abcam) overnight at 4° C. Next, the sections were incubated with biotinylated secondary antibodies (1:200; Vector Laboratories, Burlingame, Calif., USA) for one hour and in AB complex (1:100) for 30 minutes at room temperature. The sections were visualized with a DAB substrate kit (Vector Laboratories) and counterstained with hematoxylin. The sections were then photographed with a microscope mounted with a charge-coupled device camera.

[3] = test system: rats with bilateral 6-OHDA lesions of the NTS; assay: Echocardiography in rats with 6-OHDA lesions
Experimental: After the first set of the rat model was established, the second set of experiments intended to determine some time points for analysis. Rats were anesthetized with pentobarbital (50 mg/kg, ip) before NTS lesion. After surgery (lesion of the NTS), the wounds were closed and the rats were removed from the stereotaxic frame for further observation. Each rat was placed in a small cage and woken within 30 minutes for free activity. The rat were respectively sacrificed (intervention and control group, n=6 in each group) at different time point (0, 3 and 6 hours) for analyzing histopathology and biochemistry from blood, brain, heart and lung. Before sacrificing, echocardiography was performed to exanimate left ventricular (LV) wall thickness and cardiac function.
as §1
Rats were immobilized and shaved on the chest for echocardiographic examinations using commercially available equipment (Vivid 7, GE Ultrasound, Horten, Norway) equipped with 10-MHz phased array transducers. All the records were stored digitally as two-dimensional cine loops and analyzed with customized dedicated research software (Echo PAC, GE Ultrasound, Horten, Norway). Two-dimensionally guided M-mode recordings were obtained from the parasternal short-axis view at a depth of 2 cm at the level of the papillary muscles. M-Mode tracing were recorded at a speed of 200 mm/s. The measurements were made using the method of the American Society of Echocardiography and the parameters were measured digitally on the M-mode tracing and averaged from 5 consecutive cardiac cycles.

[4] = test system: rats with bilateral 6-OHDA lesions of the NTS; assay: BP and HR recording and survival in rats with 6-OHDA lesions of the NTS (rat model mimicking fatal EV 71 encephalitis); conditions: for survival time after NTS lesion: n=6, 6-OHDA rats died within 7 hours
From the text: (§4) Three sets of experiments were designed according to the three specific aims mentioned above. The first set of experiments was to establish a rat model by micro-injecting 6-hydroxydopamin (6-OHDA) into NTS leading to acute fulminating hypertension and pulmonary hemorrhagic edema. We recorded the blood pressure (BP) and heart rate (HR) in trend. Two groups of rats (n=6 in each group) were studied: 1) an intervention group in which 6-OHDA (Sigma, […]) dissolved in vehicle (0.8% ascorbic acid in saline) was injected into NTS bilaterally; and 2) a control group that received injections of equal volumes of vehicle alone. Each group of rats was anesthetized with urethane (1 g/kg, i.p.) and connected to oscillator circuits for BP and HR recording via […]. For microinjections into the NTS, the rats were anesthetized and placed in a stereotaxic frame; then the dorsal surface of the medulla was exposed. A glass cannula was filled with L-glutamate (0.154 mmol/60 n1) to functionally identify the NTS.
as §1

[5] = test system: rats with bilateral 6-OHDA lesions of the NTS; assay: Pulmonary edema index and gross lung specimens in rats with 6-OHDA lesions; conditions: n=6 per group
Experimental: as §1
After the blood-sampled rats were sacrificed, the chest each of the rats was opened to remove the lung and the heart, and then the skull was opened for NTS tissue. To estimate the liquid accumulation in the lungs, both lungs were weighted, then dried in an oven at 80° C. for two days and weighted as dry lung weight. The total weight/body multiplies by 100 and wet-to-dry lung weight ratio were calculated for indicating the degree of pulmonary edema.

[6] = test system: control rats with NTS microinjected with vehicle; assay: BP and HR recording in control-treatment group (vehicle injected into NTS, then hexamethonium); conditions: no 6-OHDA lesion; hexamethonium 25 mg/kg iv
From the text: as §4, with “NTS. […]” for “NTS.”

[7] = test system: rats with bilateral 6-OHDA lesions of the NTS; assay: Lung histopathology and immunohistochemistry (H&E, PMN, connexin 43) in rats with 6-OHDA lesions; conditions: n=6 per group
Experimental: as §1, §2, §3

C[N+](C)(C)CCCCCC[N+](C)(C)C [hexamethonium]
level of epinephrine at 6 hours, 6-OHDA vs 6-OHDA+Hexamethonium ([1]; 6 hours): no significant differences
level of norepinephrine at 6 hours, 6-OHDA vs 6-OHDA+Hexamethonium ([1]; 6 hours): no significant differences
acute high rise of epinephrine serum level post 6-OHDA lesions ([1]; within 3 hours after hexamethonium treatment, FIG. 1D, n=6 per group): significantly lowered
acute high rise of norepinephrine serum level post 6-OHDA lesions ([1]; within 3 hours after hexamethonium treatment, FIG. 1E, n=6 per group): significantly lowered
increase of irregular wavy fibers with increased eosinophilic staining of the cytoplasm and contraction bands necrosis in heart (H&E) ([2]; 3 hours and 6 hours, FIG. 3A, n=6 per group): prevented
increased BNP staining in the cytoplasm (heart) ([2]; 3 hours and 6 hours, FIG. 3C, n=6 per group): reduced
increased and strong expressions of connexin 43 in heart muscle ([2]; 3 hours and 6 hours, FIG. 3D, n=6 per group): reduced
increased expression of cardiac troponin T ([2]; 6 hours, FIGS. 3B and 3E, n=4 per group): reduced
acute increase in fraction shortening ([3]; 3 hours): attenuated or reversed
decrease in the LV internal dimension in diastole and systole ([3]; 3 hours and 6 hours): reversed or attenuated
acute decrease in cardiac output after 6-OHDA lesions ([3]; 3 hours and 6 hours, FIG. 2E): prevented
acute increase in ejection fraction ([3]; 3 hours, FIG. 2F): attenuated or reversed
acute increase in LV wall thickness ([3]; 3 hours, FIGS. 2G and 2H): attenuated or reversed
HR at 3 hours ([4]; 25 mg/kg iv 10 minutes after 6-OHDA lesion, 3 hours): no significant reduction in HR
HR immediately after hexamethonium ([4]; 25 mg/kg iv 10 minutes after 6-OHDA lesion, immediately): a reduction in HR
acute hypertension induced by 6-OHDA lesions ([4]; hexamethonium 25 mg/kg iv 10 minutes after NTS lesion, FIG. 1B): reversed
acute high rise in mean blood pressure (MBP) caused by 6-OHDA lesions ([4]; hexamethonium 25 mg/kg iv 10 minutes after NTS lesion, FIG. 1C, n=6 per group): significantly reversed
survival time after NTS lesion ([4]; hexamethonium 25 mg/kg iv 10 minutes after NTS lesion): at least 14 hours
survival time after NTS lesion ([4]; hexamethonium 25 mg/kg iv 10 minutes after NTS lesion, listed as Hexamethonium): more than 14 hours
labored breathing ([4]; hexamethonium 25 mg/kg iv 10 minutes after NTS lesion, up to 14 hours post NTS lesion): did not exhibit significantly labored breathing until 14 hours
mild and severe lung congestion (gross lungs) ([5]; 3 hours and 6 hours, FIG. 4A): prevented
increased wet-to-dry lung weight ratio (W/D) ([5]; 6 hours, FIG. 4B): reversed
increased total lung/body weight (BW) ([5]; 6 hours, FIG. 4C): reversed
HR in control-treatment group [6]: no associated significant change in HR
mean blood pressure in control-treatment group [6]: significantly decreased
increased infiltrates of red blood cells and formation of hyaline membrane in lung (H&E) ([7]; 3 hours and 6 hours, FIG. 5A): prevented
increased expressions of connexin 43 in lung ([7]; 3 hours and 6 hours, FIG. 5C): attenuated
increased infiltrates of PMN in lung ([7]; 6 hours, FIG. 5B): reduced
